Data as given in patent US9606124B2, “Methods of detecting and treating stem-cell containing solid tumors” (The Regents of The University of Michigan, priority 2008, dated 2017).
Entries after “also recorded” stand apart in the source; their conditions may differ. Read-outs that look alike come from different tables or passages of the source.

How the values were obtained:
HCC1954 PTEN-siRNA cells = experiment: Repertaxin on HCC1954 PTEN-siRNA cells (western, MTT); format: cell-based, human
Procedure: (§1) Cell viability. […] Nuclei were counterstained with DAPI/antifade (Invitrogen).
(§2) Western blotting. Cells were lysed in a laemmli buffer and loaded onto SDS-polyacrylamide gels. Blots were incubated with the respective primary antibodies diluted in TBST (containing 0.1% Tween20 and 2% BSA) either overnight at 4o, or 2 hours at room temperature. Blots were washed and incubated with appropriate secondary antibodies (GE Healthcare, UK) and detected using SuperSignal West Pico Chemiluminescent Substrate (Pierce).
(§3) Virus infection. […] All lentiviral constructs were prepared by the University of Michigan Vector. An adenoviral construct for the overexpression of FAK (Ad-FAK-GFP) was also utilized (Luo et al. Cancer Res. 69:466-474, herein incorporated by reference in its entirety). Cells infection with different vectors was performed as previously described (Charafe-Jauffret et al. Cancer Res. 69:1302-1313, herein incorporated by reference in its entirety). Efficiency of infection was verified by measuring the percentage of DsRed or GFP expressing cells.

[1] = tested on: FAK Tyr397 and AKT Ser473 phosphorylation; experiment: Western blotting of FAK/AKT activation in SUM159; format: cell-based, human; conditions: 100 nM, two days
Procedure: as §2

[2] = tested on: ALDEFLUOR-positive population of SUM159 cell line; experiment: ALDEFLUOR assay on SUM159 cells in vitro (cancer stem cell population); format: cell-based, human
Procedure: ALDEFLUOR Assay and Separation of the ALDH-positive Population by FACS. ALDH activity was assessed in 33 BCLs representing the main molecular subtypes of human breast cancer. The ALDEFLUOR kit (StemCell technologies, Durham, N.C., USA) was used to isolate the population with high ALDH enzymatic activity (17). Cells obtained from subconfluent cell lines after trypsinization or from freshly dissociated xenografts were suspended in ALDEFLUOR assay buffer containing ALDH substrate (BAAA, 1 μmol/l per 1×10^6 cells) and incubated for 40 minutes at 37° C. In each experiment a sample of cells was stained under identical conditions with 50 mmol/L of diethylaminobenzaldehyde (DEAB), a specific ALDH inhibitor, as negative control. Flow cytometry sorting was conducted using a FACStarPLUS (Becton Dickinson). ALDEFLUOR fluorescence was excited at 488 nm and detected using standard fluorescein isothiocyanate (FITC) 530/30 band pass filter. For xenotransplanted tumors, incubation with an anti-H2Kd antibody (BD biosciences, 1/200, 20 min on ice) followed by a secondary antibody labeled with phycoerythrin (Jackson labs, 1/250, 20 min on ice) was used to eliminate cells of mouse origin. The sorting gates were established using PI stained cells for viability, ALDEFLUOR-stained cells treated with DEAB, and those stained with secondary antibody alone. Prior to RNA profiling or NOD/SCID mice injection, the purity of sorted populations was checked using double sorting of 10,000 ALDEFLUOR-positive and negative cells in BrCa-MZ-01 and SUM159 cell lines.
ALDEFLUOR assay. […] In order to eliminate cells of mouse origin from the xenotransplanted tumors, cell population was stained with an anti-H2Kd antibody (BD biosciences, 1/200, 20 min on ice) followed by staining with a secondary antibody labeled with phycoerythrin (PE) (Jackson labs, 1/250, 20 min on ice).

MDA-MB-453 cells = experiment: Metastasis formation after intracardiac injection of MDA-MB-453 cells (bioluminescence); format: in vivo, NOD/SCID mice; conditions: 250,000 cells intracardiac, repertaxin 15 mg/kg s.c. twice a day 28 days vs saline
Procedure: Intracardiac inoculation. […] Twelve hours after intracardiac injections, mice were begun on twice per day repertaxin injections or saline for the controls. Bioluminescence detection. Baseline bioluminescence was assessed before inoculation and each week thereafter inoculations. Bioluminescence detection procedures was performed as previously described ([…] et al. Cancer Res. 69:1302-1313, herein incorporated by reference in its entirety). Normalized photon flux represents the ratio of the photon flux detected each week after inoculations and the photon flux detected before inoculation.

phospho-AKT = experiment: Immunohistochemistry of phospho-AKT in xenotransplants; parameters: species or system NOD/SCID mice; conditions: mouse, in vivo
Procedure: (§4) Immunostaining. For immunofluorescent staining, sorted CXCR1-positive cells were fixed with 95% methanol at −20° C. for 10 minutes. Cells were rehydrated in PBS and incubated with respective antibodies at room temperature for 1 hour. Primary antibodies used were P-FAK (1:50, Cell Signaling Technology), P-AKT (1:300, Cell Signaling Technology), and FOXO3a (1:250, Cell Signaling Technology). Slides were then washed and incubated 30 minutes with PE conjugated secondary antibodies (Jackson labs). The nuclei were counterstained with DAPI/antifade (Invitrogen) and coverslipped. […] Immunohistochemistry for the detection of ALDH1 (1:100, BD biosciences), P-FAK, P-AKT, FOXO3a expression was done on paraffin section (Ginestier et al. Am. J Pathol. 161:1223-1233, herein incorporated by reference in its entirety). Staining was done utilizing the Histostainplus kit (Zymed laboratories). Diaminobenzidine (DAB) or 3-amino-9-ethylcarbazole (AEC) was used as chromogen and sections were counterstained with hematoxylin.

ALDH1 = experiment: Immunohistochemistry of ALDH1 in xenotransplants; format: in vivo, NOD/SCID mice; conditions: compared to untreated tumors
Procedure: as §4

HCC1954 cells = experiment: MTT assay, cell viability of HCC1954 cells; format: cell-based, human; conditions: repertaxin 100 nM, antibodies 10 μg/ml
Source text: as §1

[3] = tested on: normal mammary epithelial cells; experiment: Mammosphere formation by normal mammary epithelial cells; format: cell-based, human; conditions: repertaxin 100 nM for four to fifteen days adherent, then suspension
[4] = tested on: SUM159 PTEN-siRNA and SUM159 Ad-FAK cells; experiment: Repertaxin on SUM159 PTEN-siRNA and SUM159 Ad-FAK cells (western, immunofluorescence, MTT, ALDEFLUOR); format: cell-based, human; conditions: for FAK and AKT activity / FOXO3A activation in cells with PTEN deletion or FAK overexpression: 100 nM, two days
Source text: as §1
ALDEFLUOR assay. The ALDEFLUOR kit (StemCell technologies) was used to isolate the population with high ALDH enzymatic activity using a FACStarPLUS (Becton Dickinson) as previously described (Ginestier et al. Cell Stem Cell 1:555-567, herein incorporated by reference in its entirety). In order to eliminate cells of mouse origin from the xenotransplanted tumors, cell population was stained with an anti-H2Kd antibody (BD biosciences, 1/200, 20 min on ice) followed by staining with a secondary antibody labeled with phycoerythrin (PE) (Jackson labs, 1/250, 20 min on ice).
as §2, §4, §3

FOXO3A = experiment: Immunofluorescence staining of FOXO3A localization in SUM159 cells; format: cell-based, human
Procedure: The non-treated SUM159 cells presented 80% of cells positive in the cytoplasm for FOXOA3. […] The change in FOXOA3 cellular localation from the cytoplasm to the nucleus indicates an activation of FOXOA3 protein.
as §4

CC(C)Cc1ccc([C@@H](C)C(=O)NS(C)(=O)=O)cc1 [Repertaxin]
FAK and AKT activity in HCC1954 PTEN-siRNA cells (western blot) (HCC1954 PTEN-siRNA cells; 100 nM, two days): PTEN deletion blocked the effect of repertaxin treatment | cell viability (MTT) of HCC1954 PTEN-siRNA cells (HCC1954 PTEN-siRNA cells; 3 days of treatment): developed resistance to repertaxin | FAK Tyr397 and AKT Ser473 phosphorylation (western blot) [1]: decrease in FAK Tyr397 and AKT Ser473 phosphorylation | FAK Tyr397 and AKT Ser473 phosphorylation (western blot) ([1]; listed as repertaxin): decrease in FAK Tyr^397 and AKT Ser^473 phosphorylation | percent of ALDEFLUOR-positive cells ([2]; SUM159, repertaxin, repertaxin plus anti-FAS-ligand, FAS agonist): massive decrease | proportion of ALDEFLUOR-positive cells ([2]; SUM159, three days, repertaxin 100 nM, antibodies 10 μg/ml): five-fold reduction; also recorded: significant reduction | decrease of the ALDEFLUOR-positive population ([2]; SUM159 adherent, 4 days of treatment): 80% | metastasis formation (normalized photon flux) (MDA-MB-453 cells): did not have any effect on metastasis formation | cells expressing phospho-AKT in treated tumors (phospho-AKT): complete inhibition; also recorded: no expression was detected | ALDH1-positive cells / ALDH1 expression in treated tumors (ALDH1): decrease in ALDH1-positive cells; also recorded: decrease of ALDH1 expression | cell viability (MTT) (HCC1954 cells): decrease in cell viability was observed after 3 days of treatment; also recorded: significant reduction | mammosphere formation by normal mammary epithelial cells [3]: significantly decreased mammosphere formation; also recorded: significant decrease of mammosphere-initiating cells | ALDEFLUOR-positive population of cells with PTEN deletion or FAK overexpression [4]: did not alter the proportion of ALDEFLUOR-positive SUM159 PTEN knockdown cells | FAK and AKT activity / FOXO3A activation in cells with PTEN deletion or FAK overexpression [4]: did not induce FOXO3A activation | FAK and AKT activity / FOXO3A activation in cells with PTEN deletion or FAK overexpression ([4]; listed as repertaxin): PTEN knockdown blocked the effect of repertaxin treatment on FAK and AKT activity; also recorded: PTEN deletion and FAK overexpression blocked the effect of repertaxin treatment on FAK and AKT activity | cell viability (MTT) of cells with PTEN deletion or FAK overexpression ([4]; 3 days of treatment): did not display any decrease in cell viability; also recorded: developed resistance to repertaxin | ALDEFLUOR-positive population of cells with PTEN deletion or FAK overexpression ([4]; listed as repertaxin): maintenance of the ALDELFUOR-positive populations | cells positive in the nucleus for FOXOA3 (FOXO3A; SUM159, 100 nM, 2 days): 80% | FOXO3A localization (immunofluorescence) (FOXO3A; sorted CXCR1-positive cells, listed as repertaxin): shuttled to the nucleus; also recorded: re-localization of FOXO3A to the nucleus
